Laboratory results taken from PubChem BioAssay (NCI).
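How tested: cells in 96-well plates exposed to compound for 48 hours at five concentrations. GI50 = concentration required for 50% inhibition of growth. Definition used: TGI = concentration required for complete inhibition of growth.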

Assays:
Assay in all cases: NCI tumour cell line growth inhibition, 48 h
A498 renal = tested on: A498 renal
EKVX NSCLC = tested on: EKVX NSCLC
MCF7 breast = tested on: MCF7 breast
NCI/ADR-RES ovarian = tested on: NCI/ADR-RES ovarian
OVCAR-4 ovarian = tested on: OVCAR-4 ovarian
SNB-19 CNS = tested on: SNB-19 CNS
SW-620 colon = tested on: SW-620 colon
UACC-62 melanoma = tested on: UACC-62 melanoma

Row | SMILES | GI50 (A498 renal) [µM] | TGI (A498 renal) [µM] | GI50 (EKVX NSCLC) [µM] | TGI (EKVX NSCLC) [µM] | GI50 (MCF7 breast) [µM] | TGI (MCF7 breast) [µM] | GI50 (NCI/ADR-RES ovarian) [µM] | TGI (NCI/ADR-RES ovarian) [µM] | GI50 (OVCAR-4 ovarian) [µM] | TGI (OVCAR-4 ovarian) [µM] | GI50 (SNB-19 CNS) [µM] | TGI (SNB-19 CNS) [µM] | GI50 (SW-620 colon) [µM] | TGI (SW-620 colon) [µM] | GI50 (UACC-62 melanoma) [µM] | TGI (UACC-62 melanoma) [µM]
1 | CC1(N)CCN(c2cnc(-c3cccc(Cl)c3Cl)c(N)n2)CC1 | 2.49 | 12 | 2.58 | > 100 | 17.2 | 37.2 | 17 | > 100 | 7.47 | > 100 | 7.63 | > 100 | 19.3 | > 100 | 19.1 | 39.9
2 | COc1cc(C2=N/C(=C/c3cccs3)C(=O)O2)cc(OC)c1OC | – | > 100 | – | > 100 | – | > 100 | – | – | – | > 100 | – | > 100 | – | > 100 | – | > 100
3 | O=C(Nc1cccc(Cl)c1)c1cccc(NC2=C(Cl)C(=O)N(Cc3ccccc3)C2=O)c1 | > 100 | > 100 | > 100 | > 100 | 25.6 | 83.7 | 89.8 | > 100 | 68.5 | > 100 | > 100 | > 100 | 58.6 | > 100 | 21.1 | > 100
4 | CO/N=C(\COc1ccc2oc(-c3ccccc3)cc(=O)c2c1)c1ccc(OC)cc1 | 23.7 | 66.3 | 37.3 | > 100 | – | – | 21.9 | 51.4 | 19.7 | 73.9 | – | – | 25.6 | > 100 | 27 | 84.7
5 | O=NNc1ccc(Sc2ccc(NN=O)cn2)nc1 | – | > 100 | – | > 100 | – | > 100 | – | > 100 | – | > 100 | – | > 100 | – | > 100 | – | > 100
6 | COc1ccc2c(c1)C(=O)/C(=C/c1ccc([N+](=O)[O-])o1)O2 | 1.64 | 4.12 | – | – | 0.716 | 2.84 | 3.11 | > 38.9 | 0.81 | 2.06 | 3.09 | – | 0.459 | 1.22 | 1.36 | 2.91
7 | CC(C(N)C(=O)NC(C(=O)O)C1OC(n2ccc(=O)[nH]c2=O)C(O)C1O)C(O)c1ccc(O)cn1 (stereo not given) | – | – | – | > 100 | – | > 100 | – | > 100 | – | – | – | > 100 | – | > 100 | – | > 100
8 | O=C(NO)[C@@H](Cc1ccccc1)NS(=O)(=O)c1ccc(-c2ccccc2)cc1 | > 25 | > 25 | 15.7 | > 25 | > 25 | > 25 | > 25 | > 25 | > 25 | > 25 | > 25 | > 25 | 21.2 | > 25 | > 25 | > 25
9 | CC(=O)O[C@H](C[C@H](C(C)C)N(C)C(=O)[C@@H](NC(=O)[C@H]1CCCN1C)C(C)C)c1nc(C(=O)N[C@@H](Cc2ccccc2)C[C@H](C)C(=O)O)c(C)s1 | < 0.00167 | 0.00956 | 0.0044 | > 16.7 | < 0.00167 | > 16.7 | 0.102 | > 16.7 | 0.0773 | > 16.7 | < 0.00167 | > 16.7 | < 0.00167 | > 16.7 | < 0.00167 | > 16.7
